Source: patent US20090286722A1 (priority 2005, published 2009)
No end group written: not given here. *: point of attachment. Palmitoyl = CCCCCCCCCCCCCCCC(=O)*

Tests used:
[1] = tested on: Normal mice; test: Intraperitoneal glucose tolerance with peptide in younger versus older normal mice; assay type: in vivo; settings: 25 nmol/kg i.p. with glucose 18 mmol/kg, AUC 0-60 min
Method: Body weight and food intake were recorded over five days before commencement of metabolic tests. Intraperitoneal (i.p.) glucose tolerance (18 mmol/kg body weight) was assessed in non-fasted animals.

[2] = molecular target: purified porcine dipeptidyl peptidase IV (Sus scrofa, UniProt P22411); test: DPP IV degradation, % intact peptide by HPLC; assay type: in vitro ADME; settings: 37° C., pH 7.8
Method: (§1) HPLC peak area data were used to calculate the percentage intact peptide remaining at the various time points during the incubation.

[3] = molecular target: dipeptidyl peptidase IV (Sus scrofa, UniProt P22411); test: DPP IV degradation, % intact peptide by HPLC; assay type: in vitro ADME, porcine; settings: pig, purified porcine dipeptidyl peptidase IV (DPP IV), 37° C., pH 7.8
Method: as §1

[4] = tested on: ob/ob mice; test: 24 hour plasma glucose and insulin profile after a single dose in non-fasted ob/ob mice; assay type: in vivo; settings: single 12.5 nmol/kg i.p.
Source text: Dose of 12.5 nmol kg^−1 was chosen to evaluate the longer-term duration of action of a single dose of native or fatty acid derivatised GIP in non-fasted ob/ob mice.

[5] = tested on: ob/ob mice; test: Acute glucose lowering and insulin release, peptide given i.p. with glucose to 18 hour fasted ob/ob mice; settings: 25 nmol/kg i.p. with glucose 18 mmol/kg
Method: Obese diabetic (ob/ob) mice derived from the colony maintained at Aston University, UK (23) were used at 12-16 weeks of age. […] Drinking water and standard rodent maintenance diet (Trouw Nutrition, Cheshire, UK) were freely available.
Food intake and body weight were recorded daily from 5 days before commencement of the treatment regimes. Plasma glucose and insulin concentrations (10:00 h) were monitored at 2-4 day intervals. […] All acute tests were commenced at 10:00 h. […] Serum samples were taken for determination of glucagon concentrations. All other blood samples were collected from the cut tip of the tail vein of conscious mice into chilled fluoride/heparin coated glucose microcentrifuge tubes (Sarstedt, Nümbrecht, Germany) at the times indicated in the Figures. Blood samples were immediately centrifuged using a Beckman microcentrifuge (Beckman Instruments, Galway, Ireland) for 30 seconds at 13,000×g. The resulting plasma was then aliquoted into fresh tubes and stored at −20° C. prior to glucose and insulin determinations.

[6] = tested on: BRIN-BD11 cells; test: Insulin release from BRIN-BD11 cells, GIP alone and combined with antidiabetic drugs; assay type: cell-based; settings: 5.6 mM glucose, 20 minutes; for insulin secretion from BRIN-BD11 cells, agent alone: GIP 10 nM, drugs 25-200 μM; for insulin secretion, combination of agent with GIP compared with either agent alone: 10 nM GIP plus drug
Method: Acute insulin-release studies were carried out using clonal pancreatic BRIN-BD11 cells, whose origin, characteristics and secretory responsiveness have been outlined in detail elsewhere (Irwin, N. et al., 2005, Biol. Chem. (In Press)). BRIN-BD11 cells were seeded into 24-multiwell plates at a density of 10^5 cells per well and allowed to attach overnight at 37° C.

[7] = tested on: ob/ob mice; test: Daily N-AcGIP(PEG) for 14 days in 12 weeks old ob/ob mice; assay type: in vivo
Method: FIG. 27 is a pair of line graphs showing the effects of daily N-AcGIP(PEG) administration on food intake and body weight. N-AcGIP(PEG) (25 nmoles/kg/day) or saline vehicle (control) were administered for the 14-day period. Values are mean±SEM for 8 mice.
FIG. 28 is a pair of line graphs showing changes of plasma glucose and insulin after daily treatment of ob/ob mice with N-AcGIP(PEG) (25 nmoles/kg/day) or saline vehicle (control) for 14 days. Values are mean±SEM for 8 mice.
FIG. 29 is a set of line graphs showing the effects of daily N-AcGIP(PEG) administration on glucose tolerance and plasma insulin response to glucose. Tests were conducted after 14 daily injections of either N-AcGIP(PEG) ([…]) or saline vehicle (control). Glucose (18 mmoles/kg) was administered by intraperitoneal injection. Plasma glucose and insulin AUC values for 0-60 min post injection are shown in the right panels. Values are mean±SEM for 8 mice. *p<0.05 compared to control.
FIG. 30 is a line graph and a bar graph showing the effects of daily N-AcGIP(PEG) administration on insulin sensitivity. Tests were conducted after 14 daily injections of either N-AcGIP(PEG) (25 nmoles/kg/day) or saline vehicle (control). Insulin (50 U/kg) was administered by intraperitoneal injection. Plasma glucose AUC values from baseline for 0-60 min post injection are shown in the right panels. Values are mean±SEM for 8 mice. *p<0.05 compared to control.

[8] = tested on: dipeptidyl peptidase IV (DPP IV; EC 3.4.15.5); test: in the circulation; settings: cited from earlier work
[9] = tested on: dipeptidyl peptidase IV; test: purified porcine dipeptidyl peptidase IV (5 mU) in 50 mM triethanolamine-HCl (pH 7.8); settings: 37° C., up to 24 hours
[10] = molecular target: purified porcine dipeptidyl peptidase IV (porcine, UniProt P22411 38-766, limits assumed); test: cell-based or functional assay
[11] = after 14 days, glucose 18 mmol/kg i.p.

Sequence of dipeptidyl peptidase IV (Sus scrofa, UniProt P22411) (P22411 whole entry): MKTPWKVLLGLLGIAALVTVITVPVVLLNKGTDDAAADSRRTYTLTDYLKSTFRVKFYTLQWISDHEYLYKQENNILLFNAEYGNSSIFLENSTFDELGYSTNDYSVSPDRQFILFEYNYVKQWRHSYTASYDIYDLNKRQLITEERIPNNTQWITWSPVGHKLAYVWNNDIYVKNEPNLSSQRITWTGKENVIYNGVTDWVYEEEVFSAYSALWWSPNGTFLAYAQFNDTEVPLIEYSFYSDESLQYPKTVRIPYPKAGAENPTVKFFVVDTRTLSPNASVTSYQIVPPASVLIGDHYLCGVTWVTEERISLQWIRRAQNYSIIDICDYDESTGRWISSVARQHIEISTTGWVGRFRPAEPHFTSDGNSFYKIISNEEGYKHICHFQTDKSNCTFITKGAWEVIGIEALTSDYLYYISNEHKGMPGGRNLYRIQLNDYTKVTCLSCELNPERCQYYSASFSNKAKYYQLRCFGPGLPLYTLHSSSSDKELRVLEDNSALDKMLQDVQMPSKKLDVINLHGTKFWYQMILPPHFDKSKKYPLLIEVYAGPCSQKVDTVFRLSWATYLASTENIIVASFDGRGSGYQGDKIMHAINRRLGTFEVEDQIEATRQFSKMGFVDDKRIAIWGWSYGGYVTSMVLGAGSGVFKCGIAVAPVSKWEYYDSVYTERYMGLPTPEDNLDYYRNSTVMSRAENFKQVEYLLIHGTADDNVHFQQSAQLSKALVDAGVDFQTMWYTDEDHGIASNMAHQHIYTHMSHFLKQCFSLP
Sequence of purified porcine dipeptidyl peptidase IV (Sus scrofa, UniProt P22411) (P22411 whole entry): as above
Sequence of purified porcine dipeptidyl peptidase IV (porcine, UniProt P22411 38-766, limits assumed) (P22411 38-766 limits assumed): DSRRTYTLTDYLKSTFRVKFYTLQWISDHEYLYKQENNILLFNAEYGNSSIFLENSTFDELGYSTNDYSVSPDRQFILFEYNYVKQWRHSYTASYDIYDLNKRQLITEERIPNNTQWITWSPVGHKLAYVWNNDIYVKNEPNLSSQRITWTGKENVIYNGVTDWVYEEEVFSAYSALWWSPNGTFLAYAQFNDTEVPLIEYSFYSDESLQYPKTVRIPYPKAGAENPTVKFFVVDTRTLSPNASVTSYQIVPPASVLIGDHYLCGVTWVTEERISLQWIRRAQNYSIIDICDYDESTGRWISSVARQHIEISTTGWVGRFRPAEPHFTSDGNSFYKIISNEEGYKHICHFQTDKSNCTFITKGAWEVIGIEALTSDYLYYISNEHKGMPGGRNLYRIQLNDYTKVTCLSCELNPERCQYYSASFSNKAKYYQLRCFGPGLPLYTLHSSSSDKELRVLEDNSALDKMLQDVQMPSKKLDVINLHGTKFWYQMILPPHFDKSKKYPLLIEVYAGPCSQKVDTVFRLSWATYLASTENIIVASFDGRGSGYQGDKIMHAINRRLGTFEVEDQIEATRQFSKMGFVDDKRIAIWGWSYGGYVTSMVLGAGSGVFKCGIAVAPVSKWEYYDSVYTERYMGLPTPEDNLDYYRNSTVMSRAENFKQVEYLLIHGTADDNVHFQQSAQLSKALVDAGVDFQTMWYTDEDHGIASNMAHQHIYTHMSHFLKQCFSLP

For `CC[C@H](C)[C@H](NC(=O)[C@H](CO)NC(=O)[C@H](Cc1ccc(O)cc1)NC(=O)[C@H](CC(=O)O)NC(=O)[C@H](CO)NC(=O)[C@@H](NC(=O)[C@H](Cc1ccccc1)NC(=O)[C@@H](NC(=O)CNC(=O)[C@H](CCC(=O)O)NC(=O)[C@H](C)NC(=O)[C@@H](N)Cc1ccc(O)cc1)[C@@H](C)O)[C@@H](C)CC)C(=O)N[C@@H](C)C(=O)N[C@@H](CCSC)C(=O)N[C@@H](CC(=O)O)C(=O)N[C@@H](CCCCN)C(=O)N[C@H](C(=O)N[C@@H](Cc1c[nH]cn1)C(=O)N[C@@H](CCC(N)=O)C(=O)N[C@@H](CCC(N)=O)C(=O)N[C@@H](CC(=O)O)C(=O)N[C@@H](Cc1ccccc1)C(=O)N[C@H](C(=O)N[C@@H](CC(N)=O)C(=O)N[C@@H](Cc1c[nH]c2ccccc12)C(=O)N[C@@H](CC(C)C)C(=O)N[C@@H](CC(C)C)C(=O)N[C@@H](C)C(=O)N[C@@H](CCC(N)=O)C(=O)N[C@@H](CCCCN)C(=O)NCC(=O)N[C@@H](CCCCN)C(=O)N[C@@H](CCCCN)C(=O)N[C@@H](CC(N)=O)C(=O)N[C@@H](CC(=O)O)C(=O)N[C@@H](Cc1c[nH]c2ccccc12)C(=O)N[C@@H](CCCCN)C(=O)N[C@@H](Cc1c[nH]cn1)C(=O)N[C@@H](CC(N)=O)C(=O)N[C@H](C(=O)N[C@H](C(=O)N[C@@H](CCC(N)=O)C(=O)O)[C@@H](C)O)[C@@H](C)CC)C(C)C)[C@@H](C)CC` [Native GIP, reference compound], the “overall plasma glucose response in older mice compared to younger controls” value [1] was “significantly elevated”, the “overall plasma insulin response in older mice compared to younger controls” value [1] was “significantly less” and the “% Intact peptide remaining after time (h) 0” value ([2]; 0 h incubation with DPP IV (5 mU)) was 100%. For the same molecule, the “% Intact peptide remaining after time (h) 2” value ([2]; 2 h incubation with DPP IV (5 mU)) was 52±3%, the “% Intact peptide remaining after time (h) 8” value ([2]; 8 h incubation with DPP IV (5 mU)) was “completely degraded” and the remaining at 2 h, 2 mM ([3]; 2 h incubation with DPP IV (5 mU), read-out: % Intact peptide remaining after time (h) 2) was 52 ± 3%. The remaining at 8 h, 2 mM ([3]; 8 h incubation with DPP IV (5 mU), read-out: % Intact peptide remaining after time (h) 8) was 0%, the remaining at 24 h, 2 mM ([3]; 24 h incubation with DPP IV (5 mU), read-out: % Intact peptide remaining after time (h) 24) was 0% and the “effect on plasma glucose over 24 hours” value [4] was “transient, but not significant effect”. For the same molecule, the “insulin release compared to glucose alone” value [5] was “significantly greater”, the “plasma glucose concentrations and AUC (0-60 min) compared to glucose alone” value [5] was “neither this nor the overall AUC glucose excursion achieved significance” and the “insulin secretion from BRIN-BD11 cells, agent alone” value [6] was “stimulated insulin secretion”.

In the case of `COc1ccc(Cl)cc1C(=O)NCCc1ccc(S(=O)(=O)NC(=O)NC2CCCCC2)cc1` [glibenclamide], the “insulin secretion, combination of agent with GIP compared with either agent alone” value [6] is reported as “significant potentiation” and the “insulin secretion from BRIN-BD11 cells, agent alone” value [6] is reported as “stimulated insulin secretion”.

In the case of `CC(C)[C@H]1CC[C@H](C(=O)N[C@H](Cc2ccccc2)C(=O)O)CC1` [nateglinide], the “insulin secretion, combination of agent with GIP compared with either agent alone” value [6] is reported as “significant potentiation” and the “insulin secretion from BRIN-BD11 cells, agent alone” value [6] is reported as “stimulated insulin secretion”.

For `CCCCNC(=O)NS(=O)(=O)c1ccc(C)cc1` [tolbutamide], the “insulin secretion, combination of agent with GIP compared with either agent alone” value [6] was “significant potentiation” and the “insulin secretion from BRIN-BD11 cells, agent alone” value [6] was “stimulated insulin secretion”.

In the case of “N-AcGIP(PEG): GIP molecule in which PEG is attached to the C-terminus and the Acetyl group to the opposite end”, the circulating insulin ([7]; 25 nmoles/kg/day, 14 days) is reported as “without appreciable change”, the “effect on body weight” value ([7]; 25 nmoles/kg/day, 14 days) is reported as “did not affect” and the “effect on food intake” value ([7]; 25 nmoles/kg/day, 14 days) is reported as “did not affect”. The non-fasting glucose ([7]; 25 nmoles/kg/day, 14 days) was “decreased”, the “glucose tolerance after intraperitoneal glucose load” value [7, 11] was “improved glucose tolerance” and the “overall glycaemic response after intraperitoneal glucose load” value [7, 11] was “reduced the overall glycaemic response”. The “plasma insulin concentrations and insulin response to intraperitoneal glucose” value [7, 11] was “enhanced” and the “plasma glucose after administration of insulin (insulin sensitivity)” value ([7]; after 14 days, insulin 50 U/kg i.p.) was “lower plasma glucose concentrations”.

In the case of “yaegtfisdysiamdkihqqdfvnwllaqkgkkndwkhnitq”, the fragment found [8] is listed as “GIP(3-42), major” and the fragment found [9] is listed as “GIP(3-42), major, 2 hours”.

B1: GIP(LysPAL^16) (peptide)
peptide: YAEGTFISDYSIAMDKIHQQDFVNWLLAQKGKKNDWKHNITQ
modifications: C-16 palmitoyl group on the epsilon amino group of Lys 16
With B1 the “% Intact peptide remaining after time (h): 0” value [10] was 100%, the “% Intact peptide remaining after time (h): 2” value [10] was 100% and the “% Intact peptide remaining after time (h): 8” value [10] was 100%. For the same molecule, the “% Intact peptide remaining after time (h): 24” value (“% Intact peptide remaining … 24” for short) [10] was 100%.

B2: native GIP (glucose-dependent insulinotropic polypeptide; gastric inhibitory polypeptide), GIP(1-42) (peptide)
peptide: YAEGTFISDYSIAMDKIHQQDFVNWLLAQKGKKNDWKHNITQ
For B2, the “% Intact peptide remaining after time (h): 0” value [10] was 100%, the “% Intact peptide remaining after time (h): 2” value [10] was 52% and the “% Intact peptide remaining after time (h): 8” value [10] was 0%. The “% Intact peptide remaining … 24” value [10] was 0%.

B3: GIP(LysPAL^37) (peptide)
peptide: YAEGTFISDYSIAMDKIHQQDFVNWLLAQKGKKNDWK(Palmitoyl)HNITQ
For B3, the “% Intact peptide remaining after time (h): 0” value [10] was 100%, the “% Intact peptide remaining after time (h): 2” value [10] was 100% and the “% Intact peptide remaining after time (h): 8” value [10] was 100%. For the same molecule, the “% Intact peptide remaining … 24” value [10] was 100%.
